Results from PMC6149849, “Cymantrenyl-Nucleobases: Synthesis, Anticancer, Antitrypanosomal and Antimicrobial Activity Studies” (Molecules : A Journal of Synthetic Chemistry and Natural …, 2017).
Values after ≈ are worked out from the molar mass of the structure shown.

Legend:
[1] = tested on: S. epidermidis ATCC 12228; experiment: Antibacterial liquid microdilution (CLSI M07-A8); type: cell-based, Staphylococcus epidermidis
Description: (§1) Organometallic compounds play an increasingly important role in the search for new antibacterial agents. We, therefore, thought to investigate also the bactericidal activity of the newly synthesized cymantrenes 1–7, compound C and CymH. The antibacterial activity of the compounds was tested against Gram-positive methicillin-sensitive Staphylococcus aureus (MSSA), methicillin-resistant S. aureus (MRSA), vancomycin-intermediate S. aureus (VISA), S. epidermidis, and Gram-negative Escherichia coli bacterial strains, and expressed as minimal inhibitory concentration (MIC) values (Table 3).
(§2) The antibacterial activity of CymH, 1–7 and C and the reference drugs penicillin G and polymyxin B was tested by the liquid microdilution method under standard conditions using twofold dilution series, as described in the Clinical and Laboratory Standards Institute (CLSI), reference method M07-A8, and expressed as minimal inhibitory concentration (MIC) values. A panel of Gram-positive bacterial strains, S. aureus ATCC® 29213 (sensitive to methicillin, (MSSA)), S. aureus ATCC® 43300 (resistant to methicillin, (MRSA)), S. aureus ATCC 700787™ (intermediate to vancomycin, (VISA)), and S. epidermidis ATCC 12228™, and one Gram-negative, strain E. coli ATCC BAA-198™ (ESBL) were used. In addition, four clinical isolates of S. aureus (MSSA and MRSA) and two clinical isolates of S. epidermidis that were collected from different patients at the Medical University of Warsaw, Poland, were also tested. The bacterial cells were cultivated on tryptic soy agar (TSA) and nutrient agar (NA), according to ATCC recommendations. All of the strains were incubated at 37 °C. Tested compounds were dissolved in DMSO and then serially diluted twofold with cation-adjusted Mueller-Hinton broth (CAMHB). Then, 95 µL of the dilutions were dispensed into microdilution sterile plates (Mar-Four), followed by the addition of 5 µL of bacteria inoculum containing 5 × 10^4 CFU/mL. The final concentrations of the compounds ranged from 512 to 2 µg/mL. Each compound was tested in triplicate, and Penicillin G (8–0.15 µg/mL) and Polymyxin B (256–0.0625 µg/mL) were used as controls. The plates were incubated at 37 °C for 18 to 24 h depending on the bacterial strain. Thereafter, the absorbance was measured at λ = 540 nm and λ = 595 nm using a Spectrostar Omega microplate reader (BMG Labtech, Offenburg, Germany). The MIC value was defined as the lowest concentration of a compound that reduced the growth by 100%.

[2] = tested on: E. coli ATCC BAA-198 (ESBL); experiment: Antibacterial liquid microdilution (CLSI M07-A8); type: cell-based, Escherichia coli
Description: as §1, §2

[3] = tested on: Clinical S. epidermidis (MSSA) 37/12; experiment: Antibacterial liquid microdilution, clinical isolate; type: cell-based, Staphylococcus epidermidis
Description: (§3) This lack of activity against E. coli can be probably explained by an impeded cellular uptake of the compounds through the Gram-negative cell wall that consists of two layers and effective protein efflux pump systems. The antibacterial activities of 1 and C were further tested against four clinical isolates of S. aureus and two clinical isolates of S. epidermidis (Table 4).
as §2

[4] = tested on: Clinical S. epidermidis (MSSA) 43/12; experiment: as above; type: cell-based, Staphylococcus epidermidis
Description: as §3, §2

[5] = tested on: S. aureus ATCC 29213 (MSSA); experiment: Antibacterial liquid microdilution (CLSI M07-A8); type: cell-based, Staphylococcus aureus; settings: 18 to 24 h
Description: as §1, §2

[6] = tested on: S. aureus ATCC 700787 (VISA); experiment: Antibacterial liquid microdilution (CLSI M07-A8); type: cell-based, Staphylococcus aureus; settings: 18 to 24 h
Description: as §1, §2

[7] = tested on: S. aureus ATCC 43300 (MRSA); experiment: Antibacterial liquid microdilution (CLSI M07-A8); type: cell-based, Staphylococcus aureus; settings: 18 to 24 h
Description: as §1, §2

[8] = tested on: Clinical S. aureus (MSSA) 30/11; experiment: Antibacterial liquid microdilution, clinical isolate; type: cell-based, Staphylococcus aureus
Description: as §3, §2

[9] = tested on: Clinical S. aureus (MRSA) 31/12; experiment: as above; type: cell-based, Staphylococcus aureus
Description: as §3, §2

[10] = tested on: Clinical S. aureus (MSSA) 26/11; experiment: as above; type: cell-based, Staphylococcus aureus
Description: as §3, §2

[11] = tested on: Clinical S. aureus (MRSA) 44/12; experiment: as above; type: cell-based, Staphylococcus aureus
Description: as §3, §2

[12] = tested on: bloodstream forms of T. brucei clone 427-221a; experiment: Trypanocidal assay, resazurin viability assay; type: cell-based, Trypanosoma brucei
Description: (§4) All of the cultures were maintained at 37 °C in a humidified atmosphere containing 5% of CO2. Toxicity assays were performed, as previously described, with some modifications. In brief, trypanosomes and HL-60 cells were seeded at an initial cell density of 10^4/mL and 5 × 10^4/mL, respectively, in 96-well plates in a final volume of 200 μL culture medium containing various concentrations of test compounds dissolved in 100% DMSO. […] The controls contained DMSO alone. In all of the experiments, the final DMSO concentration was 0.9%. After 24 h incubation, 20 µL of a 0.5 mM resazurin solution prepared in PBS was added and the cultures were incubated for a further 48 h. Resazurin is a vital dye that, when being reduced by living cells, changes its colour from blue to pink. Thus, by measuring absorbance, the proliferation of cells can be easily determined. The change in absorbance was read with a microplate reader using a test wavelength of 570 nm and a reference wavelength of 630 nm. GI50 values were calculated by linear interpolation according to the method described by Huber and Koella. MIC values were determined microscopically.

[13] = in vitro; settings: human
Description: as §4

[14] = tested on: human myeloid leukemia HL-60 cells; experiment: in vitro; settings: human, 72 h
Description: as §4

polymyxin B [reference compound]
MIC, S. epidermidis ATCC 12228 ([1]; 18 to 24 h): 64 µg/mL
MIC, E. coli ATCC BAA-198 ([2]; 18 to 24 h): 0.125 µg/mL
MIC, Clinical S. epidermidis (MSSA) 37/12 [3]: 128 µg/mL
MIC, Clinical S. epidermidis (MSSA) 43/12 [4]: 64 µg/mL
MIC, S. aureus ATCC 29213 (MSSA) [5]: 256 µg/mL
MIC, S. aureus ATCC 700787 (VISA) [6]: >256 µg/mL
MIC, S. aureus ATCC 43300 (MRSA) [7]: 256 µg/mL
MIC, Clinical S. aureus (MSSA) 30/11 [8]: 256 µg/mL
MIC, Clinical S. aureus (MRSA) 31/12 [9]: 256 µg/mL
MIC, Clinical S. aureus (MSSA) 26/11 [10]: 256 µg/mL
MIC, Clinical S. aureus (MRSA) 44/12 [11]: 256 µg/mL

CC1(C)S[C@@H]2[C@H](NC(=O)Cc3ccccc3)C(=O)N2[C@H]1C(=O)O [penicillin G, reference compound]
MIC ([1]; Staphylococcus epidermidis, ATCC12228, 18 to 24 h): 2 µg/mL (≈ 5.98 µM)
MIC ([2]; Escherichia coli, ATCCBAA198, 18 to 24 h): > 256 µg/mL
MIC ([3]; Staphylococcus epidermidis, MSSA, read-out: MIC, Clinical S. epidermidis 37/12): 16 µg/mL (≈ 47.8 µM)
MIC ([4]; Staphylococcus epidermidis, MSSA): 8 µg/mL (≈ 23.9 µM)
MIC ([5]; Staphylococcus aureus): 2 µg/mL (≈ 5.98 µM)
MIC ([6]; Staphylococcus aureus): 32 µg/mL (≈ 95.7 µM)
MIC ([7]; Staphylococcus aureus): 16 µg/mL (≈ 47.8 µM)
MIC ([8]; Staphylococcus aureus, MSSA): 2 µg/mL (≈ 5.98 µM)
MIC ([9]; Staphylococcus aureus, MRSA): 32 µg/mL (≈ 95.7 µM)
MIC ([10]; Staphylococcus aureus, MSSA): 0.5 µg/mL (≈ 1.5 µM)
MIC ([11]; Staphylococcus aureus, MRSA): 8 µg/mL (≈ 23.9 µM)

Cc1ccc(C(=O)Nc2ccc(S(=O)(=O)O)c3cc(S(=O)(=O)O)cc(S(=O)(=O)O)c23)cc1NC(=O)c1cccc(NC(=O)Nc2cccc(C(=O)Nc3cc(C(=O)Nc4ccc(S(=O)(=O)O)c5cc(S(=O)(=O)O)cc(S(=O)(=O)O)c45)ccc3C)c2)c1 [Suramin, suramin, reference compound]
GI50 ([12]; Trypanosoma brucei, 50% growth inhibition): 39 ± 3 nM
MIC ([12]; Trypanosoma brucei, concentration at which all cells were killed, determined microscopically): 0.1 to 1 µM (≈ 0.13 to 1.3 µg/mL)
Selectivity GI50 Ratio ([12]; ratio of cytotoxic (HL-60) to trypanocidal (T. brucei) activity): >2564
GI50 at 72 h [13]: > 100000 nM
HL-60 MIC [14]: >100 µM
